In PubChem BioAssay (NCI) one finds GI50 and TGI data, which are given here for six compounds.

Some test systems named below: SF-268 CNS; MOLT-4 leukemia; UACC-62 melanoma; DU-145 prostate; 786-0 renal; NCI/ADR-RES ovarian; PC-3 prostate; MDA-MB-231 breast; NCI-H460 lung; OVCAR-8 ovarian.
Experiment in all cases: DTP human tumour cell line panel, 48 h

Structures are written as SMILES. Several values for one entry are separate records, joined by “and”; a condition that tells them apart may be missing. Equal entries are not always repeated.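 Interpolation was linear, between the two tested concentrations surrounding the appropriate level; five concentrations were tested over 48 hours in 96-well plates. The concentration for 50% growth inhibition is given as GI50. TGI marks complete inhibition of growth.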 Where a SMILES comes first, the peptide text is derived from it. Bridges are numbered along the chain shown (N, C = ends). Bounds are passed on as bounds.

For orientation: GI50 means the concentration giving 50% growth inhibition. By TGI is commonly meant the concentration at which net growth stops. Lower therefore signals more potent growth arrest. As for `CN(CCCCCCCCNc1ccnc2ccccc12)Cc1ccc(-c2ccc(-c3ccc(C#N)cc3)s2)cc1`, the GI50 was 1.6 µM in the assay with SF-268 CNS; 0.368 µM in the assay on MOLT-4 leukemia; 1.53 µM in the assay with UACC-62 melanoma; 1.04 µM in the assay with DU-145 prostate; 1.4 µM in the assay with 786-0 renal; 1.2 µM in the assay on NCI/ADR-RES ovarian. Moreover, the GI50 in the assay with PC-3 prostate was 0.766 µM; with MDA-MB-231 breast it was 1.46 µM; in the assay with NCI-H460 lung it was 0.367 µM; in the assay with OVCAR-8 ovarian, 1.02 µM. Also, the TGI amounted to 3.45 µM in the assay on SF-268 CNS; 2.51 µM with MOLT-4 leukemia; 2.92 µM with UACC-62 melanoma; 2.38 µM in the assay on DU-145 prostate; 3.25 µM with 786-0 renal; 3.23 µM with NCI/ADR-RES ovarian. In addition, the TGI in the assay with PC-3 prostate is 2.3 µM; in the assay with MDA-MB-231 breast, 3.06 µM; in the assay on NCI-H460 lung, 1.25 µM; with OVCAR-8 ovarian, 4.5 µM.

Turning to `Oc1ccccc1/C=N\Nc1ccccc1`, the GI50 with SF-268 CNS is 18.6 µM; with MOLT-4 leukemia it was 0.974 µM; in the assay on UACC-62 melanoma it was 0.798 µM; in the assay on DU-145 prostate, 15.8 µM; in the assay with 786-0 renal it was 2.7 µM; in the assay on NCI/ADR-RES ovarian, 3.2 µM. In addition, the GI50 with PC-3 prostate is 9.32 µM; with MDA-MB-231 breast, 0.553 µM; in the assay on NCI-H460 lung it was 3.36 µM; with OVCAR-8 ovarian, 4.94 µM. The TGI with SF-268 CNS was above 100 µM; in the assay on MOLT-4 leukemia, 55.6 µM; in the assay on UACC-62 melanoma, 10.1 µM; with DU-145 prostate it was above 100 µM; with 786-0 renal, 16.6 µM; in the assay with NCI/ADR-RES ovarian, 88.5 µM. Further, the TGI in the assay with PC-3 prostate is above 100 µM; with MDA-MB-231 breast, 22.7 µM; in the assay on NCI-H460 lung, above 100 µM; with OVCAR-8 ovarian it was above 100 µM.

For the compound `COc1ccc(C2CC(c3ccc4ccccc4c3)=NN2c2nc(O)c(C3=c4cc(Cl)ccc4=NC3=O)s2)cc1` (stereo not drawn), the GI50 in the assay with SF-268 CNS is 0.0291 µM and < 0.005 µM; with MOLT-4 leukemia, 0.0329 µM and < 0.005 µM; in the assay on UACC-62 melanoma it was 0.0296 µM and < 0.005 µM; with DU-145 prostate it was 0.0331 µM and < 0.005 µM; in the assay with 786-0 renal, 0.0231 µM and < 0.005 µM; with NCI/ADR-RES ovarian it was 0.0923 µM. Besides, the GI50 with PC-3 prostate is 0.0283 µM and < 0.005 µM; in the assay with MDA-MB-231 breast, 0.021 µM; in the assay with NCI-H460 lung it was 0.0216 µM; in the assay on OVCAR-8 ovarian, 0.0328 µM. The TGI in the assay with DU-145 prostate was 0.147 µM and 0.2 µM; with NCI/ADR-RES ovarian, 50 µM; with MDA-MB-231 breast it was 0.0462 µM; in the assay on NCI-H460 lung, 0.0472 µM.

For the compound `CC1OC(OC2C(O)C(OCCc3ccc(O)c(O)c3)OC(CO)C2OC(=O)/C=C/c2ccc(O)c(O)c2)C(O)C(O)C1O` (stereo not drawn), the GI50 is above 100 µM in the assay on SF-268 CNS; 19.1 µM with UACC-62 melanoma; 13.5 µM in the assay with DU-145 prostate; 14.5 µM in the assay with 786-0 renal; above 100 µM in the assay with NCI/ADR-RES ovarian; above 100 µM in the assay on PC-3 prostate. For the same compound, the GI50 in the assay with MDA-MB-231 breast was 16.3 µM; in the assay on NCI-H460 lung, above 100 µM; in the assay with OVCAR-8 ovarian it was above 100 µM. Also, the TGI is above 100 µM in the assay on SF-268 CNS; 45.5 µM in the assay with UACC-62 melanoma; 27.4 µM with DU-145 prostate; 36.3 µM with 786-0 renal; above 100 µM in the assay with NCI/ADR-RES ovarian; above 100 µM in the assay on PC-3 prostate. The TGI is 34.7 µM in the assay with MDA-MB-231 breast, above 100 µM in the assay on NCI-H460 lung and above 100 µM with OVCAR-8 ovarian.

As for `NS(=O)(=O)c1ccc(-n2nc(-c3ccccc3)cc2-c2cc(O)ccc2O)cc1`, the GI50 in the assay with SF-268 CNS was above 100 µM; with MOLT-4 leukemia it was 8.71 µM; with UACC-62 melanoma, 44.9 µM; in the assay with 786-0 renal it was 90.8 µM; with NCI/ADR-RES ovarian it was above 100 µM; in the assay on PC-3 prostate, 77.6 µM. Further, the GI50 with MDA-MB-231 breast is 25.6 µM; in the assay with NCI-H460 lung, above 100 µM; with OVCAR-8 ovarian, above 100 µM. The TGI with SF-268 CNS, with MOLT-4 leukemia, in the assay with UACC-62 melanoma, in the assay on 786-0 renal, in the assay on NCI/ADR-RES ovarian and with PC-3 prostate was above 100 µM in each case. For the same compound, the TGI is 72 µM with MDA-MB-231 breast, above 100 µM in the assay with NCI-H460 lung and above 100 µM in the assay with OVCAR-8 ovarian.

As to `CCC(C)C1NC(=O)C(CC(C)C)NC(=O)C(C(C)C)NC(=O)C2CSSCC(NC1=O)C(=O)N2` (stereo not drawn) (cyclo(CCVLI); disulfide 1-2; configuration not given here), the TGI was 0.228 µM with UACC-62 melanoma; 0.301 µM in the assay with DU-145 prostate; 0.315 µM in the assay with 786-0 renal; above 100 µM in the assay on NCI/ADR-RES ovarian; 0.329 µM with PC-3 prostate; 0.233 µM in the assay with MDA-MB-231 breast. The results for the TGI in the assay on NCI-H460 lung and in the assay on OVCAR-8 ovarian were 0.26 µM and 0.491 µM, respectively.
